Tests used:
AP1 = AP1 antagonism
patients = experiment: Example 3: two placebo-controlled 24-week safety studies plus dose-response evaluations of oral tazarotene; type: in vivo, human; conditions: for incidence of patients discontinuing due to adverse effects: placebo 3%
Procedure: Two multicenter, double-blind, randomized, placebo-controlled 24-week studies of identical design are conducted to evaluate the safety of oral tazarotene. In addition, 16- to 24-week dose-response evaluations are performed.
In the two safety trials, the incidence of adverse side effects with a 4.5 mg dose administered orally once daily is compared to the incidence of the same side effects with a placebo. […] The majority of these were mild in severity and typical of adverse effects associated with oral retinoids.

[1] = system: patients with moderate to very severe plaque psoriasis; experiment: Example 4: open-label extension study of oral tazarotene in plaque psoriasis; type: in vivo, human; conditions: 4.5 mg once daily
Procedure: Two multicenter, double-blind, placebo-controlled studies ware conducted to evaluate the efficacy and safety of oral tazarotene (4.5 mg once daily) in patients with moderate to very severe plaque psoriasis. […] Efficacy evaluations include overall lesional assessment (OLA), percent body surface area involvement, global response to treatment, plaque elevation, scaling, and erythema. OLA is graded on a 6-point scale (0=none, 1=minimal, 2=mild, 3=moderate, 4=severe, 5=very severe).

patients with acne = experiment: Example 6: studies of oral tazarotene for acne, adverse events (Table 2); type: in vivo, human; conditions: combined data from Studies 1 and 2 (N = 223)
Procedure: Studies are conducted on orally administered tazarotene for the treatment of acne. Adverse events (side effects) are monitored.

[2] = Example 8: PK and PD interactions of oral tazarotene and oral contraceptives; type: in vivo, human; conditions: up to 6 mg once daily
Procedure: It is the objective of this study to determine if there are pharmacokinetic (PK) and pharmacodynamic (PD) interactions between tazarotene and commonly prescribed oral contraceptives (OCs) when coadministered together.
Three separate clinical studies are conducted to evaluate the PK and PD interactions of oral tazarotene and OCs in healthy volunteers. Two studies evaluate daily doses of norethindrone (NE)/ethinyl estradiol (EE) with daily doses of tazarotene 1.1 mg (N=27) and 6 mg (N=29). The third study assesses the daily doses of norgestimate (NGM)/EE with daily doses of tazarotene 6 mg (N=26). OCs are administered for three consecutive menstrual cycles. Daily doses of tazarotene are started during the 2nd cycle and continued through the end of the studies. PK parameters for EE, NE, and NGM (AUC0-24 and Cmax) are determined before tazarotene dosing and after tazarotene dosing on day 6 of the 2nd and 3rd cycles. Serum concentrations of luteinizing hormone (LH) and follicle-stimulating hormone (FSH)-markers of contraceptive efficacy are also evaluated before tazarotene dosing and after tazarotene dosing on days 2, 4, and 6 of the 2nd and 3rd cycles. Serum progesterone levels are assessed on days 18 and 20 of the 2nd and 3rd cycles. […]

[3] = system: patient with severe psoriasis; experiment: Example 9: patient with severe psoriasis taking Ortho-Novum, tazarotene 6 mg per day; type: in vivo, human; conditions: after 30 days
Text: The patient presents symptoms of severe psoriasis. The symptoms include lesions approximately 4 to 10 centimeters across appearing as raised patches of wine red skin many of which are covered in silvery white scales. The lesions are mostly dry and rough, and quite often noticeably warm to the touch. The lesions are present on the elbows, knees, scalp, and groin area. The patient experiences intense burning and itching associated with the lesions.
The patient is currently taking Ortho-Novum® for contraception.
Tazarotene at a dose of 6 mg per day is prescribed.

[4] = system: patients with severe nodulocystic acne; experiment: Example 10: placebo-controlled parallel-group study of oral tazarotene in severe nodulocystic acne; type: in vivo, human; conditions: for patients withdrawing due to adverse events: placebo 0%
Text: A multicenter, double-blind, randomized, placebo-controlled parallel-group study is undertaken to determine the efficacy of orally administered tazarotene in treating severe nodulocystic acne.
In addition, washout periods for other medications for this study are: 1 week for vitamin A supplements >5000 IU; 2 weeks for topical anti-acne medications (e.g., retinoids, azelaic acid, benzoyl peroxide); 2 weeks for topical or systemic antibiotic therapy that may alter the course of acne; and 6 months for systemic retinoids.
Patients are randomized to receive placebo or oral tazarotene (0.75, 1.5, 3, or 6 mg), in a 1:1:1:1:1 ratio once daily for 24 weeks. After this, the patients are followed without treatment for an additional 12 weeks. Patients discontinuing from the treatment period due to adverse effects or lack of efficacy are eligible for entry into the post-treatment phase.
In the study, overall acne severity is rated as: none (no inflammatory acne lesions); mild (few to several papules or pustules, no nodulocystic lesions); moderate (several to many papules or pustules, few to several nodulocystic lesions); and severe (numerous or extensive papules or pustules, many, for example, at least about 5 or at least about 10, nodulocystic lesions).
Treatment success is defined as at least moderate (about 50%) improvement on the following 7-point global response scale: • 0=completely cleared • 1=almost cleared (about 90% improvement) • 2=marked response (about 75% improvement) • 3=moderate response (about 50% improvement) • 4=slight response (about 25% improvement) • 5=condition unchanged • 6=condition worsened
In this study, facial nodulocystic lesion count includes lesions greater than 5 mm in size. Facial papular/pustular lesion count includes lesions less than or equal to 5 mm in size. Facial non-inflammatory lesion count includes open and closed comedones.
Sebum output is assessed every 4 weeks at selected centers using the Sebutape® patches, sold by Cuderm Corporation. Urinalysis, chemistry, and hematology values are monitored. Bone formation and resorption assessments (serum bone alkaline phosphatase and serum amino terminal telopeptides, respectively) at selected centers are monitored.
Bone mineral density of spine and proximal femur at selected centers is monitored. Ligament calcification or osteophyte formation (lateral X-ray of the cervical and thoracic spine, and ankle calcaneous) is monitored. Epiphyseal growth plate closure (internal oblique X-ray of the ankle in patients less than or equal to 21 years old) is monitored.

[5] = 0.75 to 6 mg once daily, 24 weeks

## CCOC(=O)c1ccc(C#Cc2ccc3c(c2)C(C)(C)CCS3)nc1 [tazarotene]
AP1
  AP1 antagonism: potent
patients; 4.5 mg (n=348)
  incidence of patients discontinuing due to adverse effects: 3%
patients; 4.5 mg orally once daily vs placebo
  incidence of hypertriglyceridemia, hypercholesterolemia, abnormal liver function tests, increased alanine aminotransferase, increased aspartate aminotransferase, desquamation, eye dryness, alopecia: essentially the same incidence
patients; 6.3 mg (n=16)
  incidence of patients discontinuing due to adverse effects: 13%
patients; 0.4 to 1.1 mg (n=105)
  incidence of patients discontinuing due to adverse effects: approximately 2%
patients; 2.1 to 2.8 mg (n=21)
  incidence of patients discontinuing due to adverse effects: 10%
patients; (n=14)
  incidence of patients discontinuing due to adverse effects: 0%
[1]
  changes in liver function test values or cholesterol levels: no clinically significant changes
  serious adverse events considered related to the study treatment: no serious adverse events
[1]; 12 weeks, across both groups
  incidence of arthralgia: 20%
  incidence of asthenia: 6%
  incidence of back pain: 11%
  incidence of cheilitis: 70%
  incidence of hypertriglyceridemia: 6%
  incidence of myalgia: 15%
Patients with acne
  Adverse event: Cheilitis: 134 (60.1) number (%) of patients
  Adverse event: Conjunctivitis: 0 (0.0) number (%) of patients
  Adverse event: Desquamation central face/Desquamation: 1 (0.4) number (%) of patients
  Adverse event: Dry Skin: 79 (35.4) number (%) of patients
  Adverse event: Dry nose: 7 (3.1) number (%) of patients
  Adverse event: Epistaxis: 6 (2.7) number (%) of patients
  Adverse event: Fingertip peeling/Desquamation: 1 (0.4) number (%) of patients
  Adverse event: Headache: 26 (11.7) number (%) of patients
  Adverse event: Irritation of eyes: 0 (0.0) number (%) of patients
  Adverse event: Joint pain/Arthralgia: 18 (8.1) number (%) of patients
  Adverse event: Peeling/Desquamation: 1 (0.4) number (%) of patients
  Adverse event: Pruritus: 10 (4.5) number (%) of patients
  Adverse event: Rash-dermatitis/Rash: 7 (3.1) number (%) of patients
  Adverse event: Red Scaly face/Desquamation: 1 (0.4) number (%) of patients
  Adverse event: Skin fragility/Skin disorder: 1 (0.4) number (%) of patients
[2]
  effect on PK or efficacy of NE/EE and NGM/EE oral contraceptives: does not affect
[3]
  severity of lesions: substantially lessened
  symptoms of itching and burning: relieved
[4]; 0.75 mg group (2/35)
  patients withdrawing due to adverse events: 6%
[4]; 1.5 mg group (0/37)
  patients withdrawing due to adverse events: 0%
[4]; 3 mg and 6 mg, week 24 and throughout post-treatment phase, p≦0.05
  incidence of treatment success (≧50% global improvement) vs placebo: significantly higher incidence
[4]; 3 mg group (2/37)
  patients withdrawing due to adverse events: 5%
[4]; 6 mg group (1/36)
  patients withdrawing due to adverse events: 3%
[4]; 6 mg group, end of the post-treatment phase
  percentage of patients with at least a 90% reduction in facial nodulocystic lesion count vs placebo: significant superiority over placebo
[4]; 6 mg, week 16 until end of post-treatment phase, p≦0.01
  reduction of overall acne severity: significantly more than placebo
[4]; [5]
  bone formation and resorption (serum bone alkaline phosphatase, serum amino terminal telopeptides): do not appear to be altered
  changes in urinalysis, chemistry, or hematology measures (incl. liver function tests, triglycerides, total cholesterol, HDL cholesterol): None of the treatment groups show any consistent clinically significant changes
[4]; from week 8 onward
  reductions in number of facial papules or pustules and facial non-inflammatory acne lesions vs placebo: consistently greater reductions
  reductions in number of total facial nodulocystic lesions vs placebo: consistently greater reductions
[4]; once-daily doses of 1.5, 3, and 6 mg
  efficacy in severe nodulocystic acne: efficacious

Reference: patent publication US20050027003A1, “Methods of therapeutic treatment using retinoids with reduced side effects” (Allergan, Inc., priority 2003, published 2005)
